Laboratory results as given in patent publication US7285618B1, “Polypeptides having neutrophil stimulating activity” (Japan Tobacco Inc., priority 2000, dated 2007).
Read-outs that look alike come from different tables or passages of the source. Where no end group is shown, it is not given here.

Assays:
[1] = system: monocyte and lymphocyte mixed cells; experiment: β-HA secretion from monocyte and lymphocyte mixed cells; format: cell-based, human
[2] = system: differentiated HL60 cells
Experimental: (§1) The differentiated HL60 cells and human leukocyte cells were washed three times with ice-cooled 0.1% BSA containing Hepes buffered Hank's solution (HBHS; 10 mM Hepes, 136.9 mM NaCl, 5.4 mM KCl, 1.2 mM CaCl2, 0.44 mM KH2PO4, 0.49 mM MgCl2, 0.41 mM MgSO4, 0.34 mM Na2HPO4, 5.5 mM glucose, 4.2 mM NaHCO3, pH 7.4). A cell suspension was prepared for each cell type at 5.5×10^6 cells/ml. Cytochalasin B and DNase I were then added to each cell suspension at a final concentration of 5 μg/ml. Ninety μl of each cell suspension was then transferred to an ice-cooled tube (5.0×10^5 cells/tube) and incubated at 37° C. for 10 minute. To each tube, either one of the fractions of polypeptide (or extract) in solution (10 μl) was added and incubated at 37° C. for 10 minutes to stimulate the cells. Immediately after the treatment, 200 μl of ice-cooled reaction quenching buffer (25 mM Tris, 123 mM NaCl, 2.7 mM KCl, pH 7.4) was added to the cell suspensions to stop the stimulation. Thereafter, the tubes were spun down at 4° C. for 60 seconds to precipitate the cell pellets and the β-HA activity and the lactate dehydrogenase (LDH) activity in the supernatant were measured.
(§2) The amount of LDH secreted into the reaction mixture was determined by measuring the absorbance (340 nm) of NADH generated by reduction of that NAD involves dehydrogenation of lactate. Reaction was initiated by adding a 400 μl of a substrate-buffer solution (125 mM 2-amino-2-methyl-1-propanol, 125 mM lithium lactate, 6.25 mM NAD, pH 9.5) to a 100 μl of the reaction supernatant. Following a 1-hr incubation at 37° C., the mixture was quenched in ice water to stop the reaction and the absorbance at 340 nm was measured.
(§3) The LDH enzyme activity secreted in the reaction mixture was expressed as the percentage of the total enzyme activity in cells (%/total) which was the enzyme activity of LDH released upon disruption of the cells with 0.05% Triton X-100.

human neutrophils = experiment: β-HA secretion from human neutrophils; format: cell-based; conditions: for β-HA secretion from neutrophil cells (%/total): human neutrophils; for secretion of β-HA from human neutrophils: stimulation with 10 μM
Experimental: b. Preparation of Human Leukocytes
Thirty milliliters of human peripheral blood (containing 500 units of heparin sodium) was plated on 5 ml of Lymphocepal I in each of 4 centrifugal tubes and spun down (400 g, 30 min) at room temperature. After spinning, the monocytes and lymphocytes forming a turbid layer at the interface between the plasma and Lymphocepal I were carefully taken to be removed. […] The Percoll layer containing neutrophils was carefully taken and washed with physiological saline. Then, it was replaced by a 0.2% NaCl solution and about 30 seconds later, an equal amount of 1.6% NaCl aqueous solution was added; this procedure was repeated twice, whereby the left erythrocytes were lysed and neutrophils were isolated.
The purities of these monocyte-lymphocyte mixed cells and neutrophils were assayed by analysis with a flow cytometer. Propidium iodide was added to the cell suspension at a final concentration of 100 ng/ml in order to stain dead cells. Using a flow cytometer, forward scatter intensity and side scatter intensity were measured on a linear scale only for the negative cells (living cells) in the cell suspension for the propidium iodide-staining. The results were processed by CellQuest software and represented as a dot plot of forward scatter intensity (X-axis) and side scatter intensity (Y-axis). The purify of monocycle-lymphocyte mixed cells were 84% and that of the neutrophils were 83%. […]
c. Stimulation of the Cell […]
d. Measuring β-HA Enzyme Activity
The amount of β-HA secreted into the reaction supernatant was determined by measuring the absorbance at 415 nm of p-nitrophenol that was generated by an enzymatic reaction involving p-nitrophenyl N-acetyl-β-D-glucosaminide as a substrate. To be specific, 90 μl of the reaction supernatant was transferred to a 96-well Immuno plate (Nunc) and 60 μl of a substrate solution (10 mM p-nitrophenyl N-acetyl-β-D-glucosaminide/40 mM citrate, 70 mM Na2HPO4, pH 4.5) was added to initiate an enzymatic reaction. Following a 1-hr reaction at 37° C., 100 μl of a reaction quencher (400 mM glycine, pH 10.7) was added to stop the reaction and the absorbance at 415 nm was measured. As a control, cells were treated with Triton X-100 at a final concentration of 0.05% and the amount of β-HA in the supernatant was measured. As another control, the amount of β-HA secreted from cells upon stimulation with fMLP at a final concentration of 10 μM was measured.

HL60 cells = format: cell-based, human
G protein (Gi) = experiment: GTPase activity of purified Gi reconstituted on a phospholipid membrane; format: biochemical, rabbit; conditions: 3 μM
From the text: G protein (Gi), which is present in neutrophils and involved in […] of fMLP, was extracted from the rabbit liver and purified (J. Biol. Chem. 267, 16237-16243, 1992). The purified Gi was reconstituted on a phospholipid membrane, and it was challenged by fCyt b (1-15) or COSP-1. We measured GTPase activity for these stimulations.

[3] = system: differentiated HL60 cells; experiment: LDH leakage from HL60 cells
Experimental: as §1, §2, §3

fMLP receptor = target: T1, fMLP receptor (Homo sapiens, UniProt P21462); experiment: [3H]fMLP binding to the fMLP receptor on differentiated HL60 cells; conditions: [3H]fMLP 50 nM, 22° C., 60 minutes; COSP-1 up to 10 μM
T1 construct: fMLP receptors are expressed on the surfaces of the cells as they differentiate into neutrophil-like cells; endogenous in cells; host or cells: HL60 cells differentiated with db-cAMP (whole cells)
T1 sequence (P21462 1-350): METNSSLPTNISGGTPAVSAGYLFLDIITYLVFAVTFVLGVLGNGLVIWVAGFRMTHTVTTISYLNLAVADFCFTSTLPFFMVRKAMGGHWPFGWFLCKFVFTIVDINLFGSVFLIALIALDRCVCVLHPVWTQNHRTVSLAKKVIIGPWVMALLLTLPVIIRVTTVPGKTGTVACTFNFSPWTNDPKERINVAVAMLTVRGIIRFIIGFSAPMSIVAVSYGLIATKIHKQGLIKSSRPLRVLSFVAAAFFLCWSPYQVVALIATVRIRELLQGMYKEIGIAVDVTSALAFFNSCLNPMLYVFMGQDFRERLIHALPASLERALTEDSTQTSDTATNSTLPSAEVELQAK
Experimental: The binding study of COSP-1 to the fMLP receptor was done using the differentiated HL60 cells. The differentiated HL60 cells were washed twice with HBHS. Then, the cells were suspended at 3.1×10^7 cells/ml and this suspension was transferred to tubes (2.5×10^6 cells/80 μl) and incubated at 22° C. for 10 minutes. Subsequently, various concentrations of COSP-1 or fMLP (10 μl) were added and incubated at 22° C. for 5 minutes. Thereafter, 10 μl of [^3H]fMLP (final concentration at 50 nM) was added and reaction was performed at 22° C. for 60 minutes. By adding 500 μl of ice-cooled PBS-BSA (10 mM phosphate, 120 mM NaCl, 0.5% BSA), the reaction was stopped. The treated cell suspension was then passed through a glass-fiber filter (Whatman GF/C) and the filter was washed three times with ice-cooled PBS-BSA (2 ml) to remove [^3H]fMLP not bound to the cells. The glass-fiber filter was dried and a scintillant was added to a solution for radioactivity measurement.
The measurements of binding of the fMLP to the fMLP receptors were expressed as the percentage (%/total) for a maximum binding which was shown as the radioactivity of [^3H]fMLP having specific binding to the receptors in the absence of an unlabelled ligand.

With `CSCC[C@H](NC=O)C(=O)N[C@@H](CC(C)C)C(=O)N[C@@H](Cc1ccccc1)C(=O)O` [fMLP, formyl methionyl-leucyl-phenylalanine, reference compound] the “β-HA secretion from monocyte and lymphocyte mixed cells (%/total)” value [1] was 21.8 ± 5.3 %/total, the “secretion of β-HA in the monocyte and lymphocyte mixed cells” value ([1]; stimulation with 10 μM) was 21.8±5.3% and the “LDH leakage from the HL60 cells” value [2] was “neither of COSP-1 and fMLP caused LDH leakage”. The “β-HA secretion from neutrophil cells (%/total)” value (human neutrophils) was 68.3 %/total, the “secretion of β-HA from human neutrophils” value (human neutrophils) was 68.3% and the “β-HA secretion to the undifferentiated HL60 cells” value (HL60 cells) was “Neither COSP-1 nor fMLP caused the β-HA secretion”.

In the case of LSFLIPAGWVLSHLDHYKRSSAA-OH [COSP-1], the “stimulation of the GTPase activity of Gi” value (G protein (Gi)) is reported as “about 6 fold”, the “LDH leakage from the HL60 cells” value ([3]; Example 6) is reported as “neither of COSP-1 and fMLP caused LDH leakage” and the “LDH leakage out of the cells” value ([3]; differentiated HL60 cells, Example 4) is reported as “no LDH was found to leak out”. For the same compound, the “inhibition of the specific binding between [3H]fMLP and fMLP receptors” value (fMLP receptor) was “not by COSP-1 even when its final concentration was reacted to 10 μM”, the “β-HA secretion from neutrophil cells (%/total)” value (human neutrophils) was 40.5 %/total and the “secretion of β-HA from human neutrophils” value (human neutrophils) was 40.5%. The “β-HA secretion to the undifferentiated HL60 cells” value (HL60 cells) was “Neither COSP-1 nor fMLP caused the β-HA secretion”.
